# Experimental data: ChEMBL document CHEMBL3885861, “Open TG-GATES”
# Organism: Rattus norvegicus
# Test: Open TG-GATES - Regimen: Single
# Assay type: toxicity, organism-based, Sprague-Dawley
# Set-up: regimen Single, gender Male, age 6 weeks
# Settings: in vivo, po, route gavage; for APTT / Bas / Eos / Fbg / Hb / Ht / Lym / MCH / MCHC / MCV / Mono / Neu / Plat / RBC / Ret / WBC: tissue Blood; for KIDNEY_L / KIDNEY_R / KIDNEY_TOTAL: tissue Kidney; for LIVER: tissue Liver; for ALP / ALT / AST / CRE / DBIL / GLC / IP / K / LDH / Na / PL / RALB / TBIL / TC / TG / TP / gamma-GTP: tissue Plasma
# [1] = 100 mg/kg, 24 h, dose level Low
# [2] = 300 mg/kg, 3 h, dose level Middle
# [3] = 300 mg/kg, 6 h, dose level Middle
# [4] = 300 mg/kg, 9 h, dose level Middle
# [5] = 300 mg/kg, 24 h, dose level Middle
structure (smiles),measurement,setting,value
CN(C)CCC=C1c2ccccc2COc2ccccc21 [DOXEPIN],TERMINAL_BW,"100 mg/kg, 9 h, dose level Low",193.4 g
same,APTT,"100 mg/kg, 9 h, dose level Low",24.3 s
same,Bas,"100 mg/kg, 9 h, dose level Low",0%
same,Eos,"100 mg/kg, 9 h, dose level Low",0.8%
same,Fbg,"100 mg/kg, 9 h, dose level Low",284.4 mg/dL
same,Hb,"100 mg/kg, 9 h, dose level Low",13.5 g/dL
same,Ht,"100 mg/kg, 9 h, dose level Low",40.9%
same,Lym,"100 mg/kg, 9 h, dose level Low",80.4%
same,MCH,"100 mg/kg, 9 h, dose level Low",21.9 pg
same,MCHC,"100 mg/kg, 9 h, dose level Low",32.9%
same,MCV,"100 mg/kg, 9 h, dose level Low",66.5 fL
same,Mono,"100 mg/kg, 9 h, dose level Low",2.4%
same,Neu,"100 mg/kg, 9 h, dose level Low",16%
same,Plat,"100 mg/kg, 9 h, dose level Low",117.4 x10_4/uL
same,RBC,"100 mg/kg, 9 h, dose level Low",614.6 x10_4/ul
same,Ret,"100 mg/kg, 9 h, dose level Low",8.5%
same,WBC,"100 mg/kg, 9 h, dose level Low",81.6 x10_2/uL
same,KIDNEY_L,"100 mg/kg, 9 h, dose level Low",0.9 g
same,KIDNEY_R,"100 mg/kg, 9 h, dose level Low",0.9 g
same,KIDNEY_TOTAL,"100 mg/kg, 9 h, dose level Low",1.8 g
same,LIVER,"100 mg/kg, 9 h, dose level Low",7.7 g
same,ALP,"100 mg/kg, 9 h, dose level Low",1637.2 IU/L
same,ALT,"100 mg/kg, 9 h, dose level Low",33.8 IU/L
same,AST,"100 mg/kg, 9 h, dose level Low",69.4 IU/L
same,CRE,"100 mg/kg, 9 h, dose level Low",0.2 mg/dL
same,DBIL,"100 mg/kg, 9 h, dose level Low",0.002 mg/dL
same,GLC,"100 mg/kg, 9 h, dose level Low",167 mg/dL
same,IP,"100 mg/kg, 9 h, dose level Low",10.4 mg/dL
same,K,"100 mg/kg, 9 h, dose level Low",4 meq/L
same,LDH,"100 mg/kg, 9 h, dose level Low",99.6 IU/L
same,Na,"100 mg/kg, 9 h, dose level Low",144.8 meq/L
same,PL,"100 mg/kg, 9 h, dose level Low",135 mg/dL
same,RALB,"100 mg/kg, 9 h, dose level Low",2.5 g/dL
same,TBIL,"100 mg/kg, 9 h, dose level Low",0.062 mg/dL
same,TC,"100 mg/kg, 9 h, dose level Low",72.6 mg/dL
same,TG,"100 mg/kg, 9 h, dose level Low",26.6 mg/dL
same,TP,"100 mg/kg, 9 h, dose level Low",5.3 g/dL
same,gamma-GTP,"100 mg/kg, 9 h, dose level Low",1 IU/L
same,TERMINAL_BW,[1],208.9 g
same,APTT,[1],17.3 s
same,Bas,[1],0%
same,Eos,[1],0.8%
same,Fbg,[1],264.6 mg/dL
same,Hb,[1],14 g/dL
same,Ht,[1],41.3%
same,Lym,[1],78.2%
same,MCH,[1],21.9 pg
same,MCHC,[1],34%
same,MCV,[1],64.4 fL
same,Mono,[1],2.6%
same,Neu,[1],17.4%
same,Plat,[1],125.2 x10_4/uL
same,RBC,[1],641.6 x10_4/ul
same,Ret,[1],7.3%
same,WBC,[1],97.7 x10_2/uL
same,KIDNEY_L,[1],0.9 g
same,KIDNEY_R,[1],0.9 g
same,KIDNEY_TOTAL,[1],1.8 g
same,ALP,[1],2097.8 IU/L
same,ALT,[1],45 IU/L
same,AST,[1],75.8 IU/L
same,CRE,[1],0.2 mg/dL
same,DBIL,[1],0.006 mg/dL
same,GLC,[1],176.4 mg/dL
same,IP,[1],7.5 mg/dL
same,K,[1],4 meq/L
same,LDH,[1],112.6 IU/L
same,Na,[1],142 meq/L
same,PL,[1],155.8 mg/dL
same,RALB,[1],2.6 g/dL
same,TBIL,[1],0.04 mg/dL
same,TC,[1],80.4 mg/dL
same,TG,[1],101 mg/dL
same,TP,[1],5.6 g/dL
same,gamma-GTP,[1],1 IU/L
same,TERMINAL_BW,[2],198.6 g
same,APTT,[2],17.8 s
same,Bas,[2],0.2%
same,Eos,[2],0.4%
same,Fbg,[2],275.2 mg/dL
same,Hb,[2],12.9 g/dL
same,Ht,[2],40%
same,Lym,[2],73%
same,MCH,[2],21.7 pg
same,MCHC,[2],32.1%
same,MCV,[2],67.4 fL
same,Mono,[2],3.2%
same,Neu,[2],22.4%
same,Plat,[2],112.8 x10_4/uL
same,RBC,[2],593.6 x10_4/ul
same,Ret,[2],10%
same,WBC,[2],63.7 x10_2/uL
same,KIDNEY_L,[2],0.9 g
same,KIDNEY_R,[2],0.9 g
same,KIDNEY_TOTAL,[2],1.8 g
same,LIVER,[2],9 g
same,ALP,[2],1422.6 IU/L
same,ALT,[2],48 IU/L
same,AST,[2],76.6 IU/L
same,CRE,[2],0.1 mg/dL
same,DBIL,[2],0.002 mg/dL
same,GLC,[2],187.4 mg/dL
same,IP,[2],10 mg/dL
same,K,[2],3.9 meq/L
same,LDH,[2],71.2 IU/L
same,Na,[2],145.6 meq/L
same,PL,[2],147.6 mg/dL
same,RALB,[2],2.4 g/dL
same,TBIL,[2],0.044 mg/dL
same,TC,[2],78.6 mg/dL
same,TG,[2],64.6 mg/dL
same,TP,[2],5.3 g/dL
same,gamma-GTP,[2],1.2 IU/L
same,TERMINAL_BW,[3],194.4 g
same,APTT,[3],17.3 s
same,Bas,[3],0.2%
same,Eos,[3],0.8%
same,Fbg,[3],290 mg/dL
same,Hb,[3],12.9 g/dL
same,Ht,[3],40%
same,Lym,[3],74.2%
same,MCH,[3],21.3 pg
same,MCHC,[3],32.4%
same,MCV,[3],66 fL
same,Mono,[3],3%
same,Neu,[3],21%
same,Plat,[3],126.3 x10_4/uL
same,RBC,[3],605.6 x10_4/ul
same,Ret,[3],9.5%
same,WBC,[3],84.5 x10_2/uL
same,KIDNEY_L,[3],0.9 g
same,KIDNEY_R,[3],0.9 g
same,KIDNEY_TOTAL,[3],1.8 g
same,LIVER,[3],7.8 g
same,ALP,[3],1630.2 IU/L
same,ALT,[3],42.2 IU/L
same,AST,[3],83.2 IU/L
same,CRE,[3],0.1 mg/dL
same,DBIL,[3],0 mg/dL
same,GLC,[3],185 mg/dL
same,IP,[3],11.1 mg/dL
same,K,[3],3.7 meq/L
same,LDH,[3],85.2 IU/L
same,Na,[3],146.2 meq/L
same,PL,[3],141.6 mg/dL
same,RALB,[3],2.5 g/dL
same,TBIL,[3],0.054 mg/dL
same,TC,[3],82.6 mg/dL
same,TG,[3],11.2 mg/dL
same,TP,[3],5.4 g/dL
same,gamma-GTP,[3],1.4 IU/L
same,TERMINAL_BW,[4],192.2 g
same,APTT,[4],17.8 s
same,Bas,[4],0%
same,Eos,[4],1%
same,Fbg,[4],275 mg/dL
same,Hb,[4],13.2 g/dL
same,Ht,[4],39.9%
same,Lym,[4],77.6%
same,MCH,[4],21.9 pg
same,MCHC,[4],33%
same,MCV,[4],66.4 fL
same,Mono,[4],2.6%
same,Neu,[4],18.4%
same,Plat,[4],130.9 x10_4/uL
same,RBC,[4],603.6 x10_4/ul
same,Ret,[4],9.4%
same,WBC,[4],76.7 x10_2/uL
same,KIDNEY_L,[4],0.9 g
same,KIDNEY_R,[4],0.9 g
same,KIDNEY_TOTAL,[4],1.7 g
same,LIVER,[4],7.6 g
same,ALP,[4],1517.4 IU/L
same,ALT,[4],38.2 IU/L
same,AST,[4],64.8 IU/L
same,CRE,[4],0.1 mg/dL
same,DBIL,[4],0.002 mg/dL
same,GLC,[4],184 mg/dL
same,IP,[4],10.4 mg/dL
same,K,[4],3.9 meq/L
same,LDH,[4],74.2 IU/L
same,Na,[4],145.2 meq/L
same,PL,[4],142 mg/dL
same,RALB,[4],2.5 g/dL
same,TBIL,[4],0.06 mg/dL
same,TC,[4],79.2 mg/dL
same,TG,[4],12.2 mg/dL
same,TP,[4],5.5 g/dL
same,gamma-GTP,[4],1 IU/L
same,TERMINAL_BW,[5],185.6 g
same,APTT,[5],16.9 s
same,Bas,[5],0%
same,Eos,[5],0.8%
same,Fbg,[5],277.2 mg/dL
same,Hb,[5],14.8 g/dL
same,Ht,[5],43.9%
same,Lym,[5],81.2%
same,MCH,[5],22 pg
same,MCHC,[5],33.8%
same,MCV,[5],65.2 fL
same,Mono,[5],2.2%
same,Neu,[5],15.6%
same,Plat,[5],130.7 x10_4/uL
same,RBC,[5],672.8 x10_4/ul
same,Ret,[5],7.4%
same,WBC,[5],65.5 x10_2/uL
same,KIDNEY_L,[5],0.9 g
same,KIDNEY_R,[5],0.9 g
same,KIDNEY_TOTAL,[5],1.8 g
same,LIVER,[5],7.3 g
same,ALP,[5],1482.6 IU/L
same,ALT,[5],31.8 IU/L
same,AST,[5],59 IU/L
same,CRE,[5],0.2 mg/dL
same,DBIL,[5],0 mg/dL
same,GLC,[5],173.2 mg/dL
same,IP,[5],9.1 mg/dL
same,K,[5],4.1 meq/L
same,LDH,[5],87 IU/L
same,Na,[5],144.6 meq/L
same,PL,[5],131.8 mg/dL
same,RALB,[5],2.6 g/dL
same,TBIL,[5],0.046 mg/dL
same,TC,[5],74.4 mg/dL
same,TG,[5],30.6 mg/dL
same,TP,[5],5.7 g/dL
same,gamma-GTP,[5],1 IU/L
